From paper PMC5599477, “Comparative stability of Major Facilitator Superfamily transport proteins” (European Biophysics Journal, 2017)

Tests used:
XylE = target: T1, XylE (Escherichia coli, UniProt P0AGF4); assay: far-UV circular dichroism at […] nm, GuHCl denaturation with ligand; assay type: binding; conditions: 1 mM ligand; 0.35 mg/ml protein; detergent-solubilised; chemical denaturation onset, not an affinity; D/L form not given
T1 construct: 10-His tag (modified pET28a), expressed in E. coli BL21-AI, purified, detergent-solubilised (LacY-WT procedure)
T1 sequence (P0AGF4 1-491): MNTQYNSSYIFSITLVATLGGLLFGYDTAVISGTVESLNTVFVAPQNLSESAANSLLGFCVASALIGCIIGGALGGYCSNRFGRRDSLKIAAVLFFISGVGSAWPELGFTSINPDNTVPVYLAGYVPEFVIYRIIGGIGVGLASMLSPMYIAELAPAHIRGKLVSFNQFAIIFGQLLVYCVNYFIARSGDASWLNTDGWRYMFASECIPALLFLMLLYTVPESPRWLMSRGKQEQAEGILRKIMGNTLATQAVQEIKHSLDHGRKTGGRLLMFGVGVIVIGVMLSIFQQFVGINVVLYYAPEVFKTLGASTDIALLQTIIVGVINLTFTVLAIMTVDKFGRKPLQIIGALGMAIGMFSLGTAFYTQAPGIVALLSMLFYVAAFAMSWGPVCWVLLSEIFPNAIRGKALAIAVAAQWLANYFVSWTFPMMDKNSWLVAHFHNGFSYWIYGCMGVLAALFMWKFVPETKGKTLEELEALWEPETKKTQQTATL

GlpT = target: T2, GlpT (Escherichia coli, UniProt P08194); assay: far-UV circular dichroism at […] nm, urea denaturation with ligand; assay type: binding; conditions: 50 uM ligand; 0.01 mg/ml protein; detergent-solubilised; 50 mM Tris-HCl pH 7.4; chemical denaturation onset, not an affinity
T2 construct: 10-His tag (modified pET28a), expressed in E. coli BL21-AI, purified, detergent-solubilised (LacY-WT procedure, Tris-HCl pH 7.4)
T2 sequence (P08194 1-452): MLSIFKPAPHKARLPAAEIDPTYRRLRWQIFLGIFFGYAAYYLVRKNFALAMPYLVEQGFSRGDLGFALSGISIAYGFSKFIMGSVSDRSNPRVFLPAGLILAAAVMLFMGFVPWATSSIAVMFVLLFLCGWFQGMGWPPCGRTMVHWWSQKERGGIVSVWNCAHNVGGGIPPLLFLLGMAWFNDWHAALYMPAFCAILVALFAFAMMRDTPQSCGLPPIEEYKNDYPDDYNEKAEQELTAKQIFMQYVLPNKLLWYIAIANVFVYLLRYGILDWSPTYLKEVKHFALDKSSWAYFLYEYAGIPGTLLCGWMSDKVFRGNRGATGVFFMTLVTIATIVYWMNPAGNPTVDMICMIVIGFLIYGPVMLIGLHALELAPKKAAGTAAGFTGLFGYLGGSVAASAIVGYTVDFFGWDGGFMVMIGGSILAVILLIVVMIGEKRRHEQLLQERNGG

Row | Compound | Concentration of GuHCl required for unfolding (M) (XylE) | Effect of ligand on stability (GlpT)
1 | OC1OC[C@@H](O)[C@H](O)[C@H]1O (some centres unmarked) [xylose] | > 5 M GuHCl | –
2 | Cc1ncc(COP(=O)(O)O)c(C=O)c1O [pyridoxal-5-phosphate] | – | > 6 M urea
